The values below come from PMC7689096, “Cyclizing Painkillers: Development of Backbone-Cyclic TAPS Analogs” (Frontiers in Chemistry, 2020).

Square brackets hold non-standard residues; d marks the D form. Peptide text beside a SMILES is read from it. Sar = CNCC(=O)O

The subject of this series is Brush Border Membrane Vesicle (BBMV) enzymes. Put plainly: in vitro. Format: in vitro ADME. The following applies: rat BBMV. Here is the method:
A few of the peptides from the library were selected for further evaluation. The TAPS c(2-6) representative MOP agonists, TAPS c(6-2) and TAPS c(4-2) were not evaluated for opioid receptor interaction, and two non-active cyclic peptides, TAPS c(3-2) and TAPS c(6-6), having a smaller and larger ring sizes, respectively. The backbone-cyclic peptide stability in the GI tract was evaluated using rat origin pooled Brush Border Membrane Vesicle (BBMV) enzymes and were compared to the stability of linear TAPS (Figure 6).
1. Mass spectrometry analyses … 1
2. Metabolic Stability in BBMVs … 1
2.1 Preparation of BBMVs … 1
2.2 Experimental protocol for BBMVs … 2
3.1 In vitro cell based model: Caco-2 cell culture permeability studies … 2 3.1.1 Growth and Maintenance of the Cells: … 2
3.1.2 Preparation of the Cells for Transport Studies: … 2
3.2 Experimental Protocol … 2
3.3 Data Analysis of In Vitro Studies … 3
3.4 Statistical Analysis of the In Vitro Studies … 3
3.5 Statistical Analysis of Pharmacodynamic Studies … 3
3.6 Analytical Methods for Compound Concentration … 3
5. Supplementary Figures … 6
6. Supplementary Tables … 7
1. Mass spectrometry analyses
Mass spectra were acquired on a LCQ Fleet Ion Trap mass spectrometer (Thermo Scientific) utilizing electrospray ionization. For high resolution mass spectrometry (HRMS) analyses, the spectra were recorded on an Agilent 6550 iFunnel Q-TOF LC/MS system.
2. […]

As for `CN(CC(=O)O)C(=O)[C@H](Cc1ccccc1)NC(=O)[C@@H](CCCN=C(N)N)NC(=O)[C@@H](N)Cc1ccc(O)cc1` [Linear, Tyr-D-Arg-Phe-Sar] (H-Y[dR]F[Sar]-OH), the metabolised at 0.5 h (male, Wistar, kidney or brush border membranes, pH 7.4, after treatment for 30 min, read-out: peptide degraded by intestinal enzymes) was over 80%. The “peptide fate with intestinal enzymes” value (after 60 min) was “decomposed”.
